According to ChEMBL document CHEMBL3108668, “Antitumor activity of jujuboside B and the underlying mechanism via induction of apoptosis and autophagy” (J Nat Prod, 2014):
Active and inactive are the calls of the source. The rule behind the calls is not given here.

Legend:
AGS [1] = experiment: Induction of apoptosis in human AGS cells assessed as increase in pp38 level at 100 uM after 24 hrs by Western blotting analysis in presence of bafilomycin A1; type: functional, cell-based
AGS [2] = experiment: Induction of autophagy in human AGS cells assessed as increase in LC3-2 level at 50 uM after 24 hrs by Western blotting analysis; type: functional, cell-based
AGS [3] = experiment: Cell cycle arrest in human AGS cells assessed as accumulation at sub G1 phase at 100 uM after 24 hrs by propidium iodide staining-based flow cytometry; type: functional
AGS [4] = experiment: Induction of apoptosis in human AGS cells assessed as increase in LC3-2 level at 50 uM after 24 hrs by Western blotting analysis in presence of bafilomycin A1; type: functional, cell-based
HCT-116 [5] = experiment: Cytotoxicity against human HCT116 cells after 24 hrs by MTT assay; type: functional, cell-based
AGS [6] = experiment: Induction of apoptosis in human AGS cells assessed as early apoptotic cells at 150 uM after 24 hrs by annexin V-FITC/propidium iodide staining-based flow cytometry (reference value: 6.6%); type: functional
AGS [7] = experiment: Induction of apoptosis in human AGS cells assessed as late apoptotic cells at 100 uM after 24 hrs by annexin V-FITC/propidium iodide staining-based flow cytometry (reference value: 7.3%); type: functional
HCT-116 [8] = experiment: Induction of apoptosis in human HCT116 cells assessed as early apoptotic cells at 100 uM after 24 hrs by annexin V-FITC/propidium iodide staining-based flow cytometry (reference value: 3.61%); type: functional
AGS [9] = experiment: Induction of apoptosis in human AGS cells assessed as reduction of FasL level at 100 uM after 24 hrs by Western blotting analysis in presence of SB202190; type: functional, cell-based
AGS [10] = experiment: Induction of apoptosis in human AGS cells assessed as necrotic cells at 25 uM after 24 hrs by annexin V-FITC/propidium iodide staining-based flow cytometry (reference value: 0.12%); type: functional
AGS [11] = experiment: Induction of apoptosis in human AGS cells assessed as apoptotic cells at 150 uM after 24 hrs by annexin V-FITC/propidium iodide staining-based flow cytometry; type: functional
AGS [12] = experiment: Induction of apoptosis in human AGS cells assessed as necrotic cells at 100 uM after 24 hrs by annexin V-FITC/propidium iodide staining-based flow cytometry (reference value: 0.12%); type: functional
HCT-116 [13] = experiment: Induction of apoptosis in human HCT116 cells assessed as cell rounding at >100 uM after 24 hrs by acridine orange staining-based microscopy; type: functional
AGS [14] = experiment: Induction of apoptosis in human AGS cells assessed as reduction of caspase8 activation at 100 uM after 24 hrs by Western blotting analysis in presence of bafilomycin A1; type: functional, cell-based
AGS [15] = experiment: Cytotoxicity against human AGS cells after 24 hrs by MTT assay; type: functional, cell-based
HCT-116 [16] = experiment: Cell cycle arrest in human HCT116 cells assessed as accumulation at sub G1 phase after 24 hrs by propidium iodide staining-based flow cytometry; type: functional
AGS [17] = experiment: Cytotoxicity against human AGS cells at 100 uM after 24 hrs by MTT assay in presence of bafilomycin A1; type: functional, cell-based
AGS [18] = experiment: Induction of apoptosis in human AGS cells assessed as cell shrinkage at >100 uM after 24 hrs by acridine orange staining-based microscopy; type: functional
AGS [19] = experiment: Induction of apoptosis in human AGS cells assessed as increase in pJNK level at 100 uM after 24 hrs by Western blotting analysis in presence of bafilomycin A1; type: functional, cell-based
HCT-116 [20] = experiment: Induction of apoptosis in human HCT116 cells assessed as apoptotic cells after 24 hrs by annexin V-FITC/propidium iodide staining-based flow cytometry; type: functional, cell-based
AGS [21] = experiment: Induction of apoptosis in human AGS cells assessed as reduction of FasL level at 100 uM after 24 hrs by Western blotting analysis in presence of SP600125; type: functional, cell-based
HCT-116 [22] = experiment: Induction of apoptosis in human HCT116 cells assessed as necrotic cells at 150 uM after 24 hrs by annexin V-FITC/propidium iodide staining-based flow cytometry (reference value: 0.68%); type: functional
HCT-116 [23] = experiment: Induction of apoptosis in human HCT116 cells assessed as late apoptotic cells at 25 uM after 24 hrs by annexin V-FITC/propidium iodide staining-based flow cytometry (reference value: 2.71%); type: functional
AGS [24] = experiment: Induction of apoptosis in human AGS cells assessed as apoptotic cells at 100 uM after 24 hrs by annexin V-FITC/propidium iodide staining-based flow cytometry; type: functional
AGS [25] = experiment: Induction of apoptosis in human AGS cells assessed as increase in FasL level at 25 to 150 uM after 24 hrs by Western blotting analysis; type: functional, cell-based
AGS [26] = experiment: Cell cycle arrest in human AGS cells assessed as accumulation at sub G1 phase at 150 uM after 24 hrs by propidium iodide staining-based flow cytometry; type: functional
HCT-116 [27] = experiment: Antitumor activity against human HCT116 cells xenografted in BALB/c nude mouse at 40 mg/kg, ip administered 3 times a week for 5 weeks relative to control; type: functional; details: route intraperitoneal
AGS [28] = experiment: Induction of apoptosis in human AGS cells assessed as decrease in pERK level at 25 to 150 uM after 24 hrs by Western blotting analysis; type: functional, cell-based
AGS [29] = experiment: Induction of apoptosis in human AGS cells assessed as apoptotic cells at 50 uM after 24 hrs by annexin V-FITC/propidium iodide staining-based flow cytometry; type: functional
AGS [30] = experiment: Induction of apoptosis in human AGS cells assessed as membrane blebbing at >100 uM after 24 hrs by acridine orange staining-based microscopy; type: functional, cell-based
AGS [31] = experiment: Induction of apoptosis in human AGS cells assessed as PARP-1 cleavage after 24 hrs by Western blotting analysis; type: functional, cell-based
AGS [32] = experiment: Induction of apoptosis in human AGS cells assessed as late apoptotic cells at 150 uM after 24 hrs by annexin V-FITC/propidium iodide staining-based flow cytometry (reference value: 7.3%); type: functional
Mus musculus = experiment: Toxicity in BALB/c nude mouse xenografted with human HCT116 cells assessed as change in body weight at 40 mg/kg, ip administered 3 times a week for 5 weeks; type: organism-based, HCT-116; set-up: dose 40 mg/kg, route intraperitoneal; details: in vivo, 840 h
HCT-116 [33] = experiment: Induction of apoptosis in human HCT116 cells assessed as early apoptotic cells at 25 uM after 24 hrs by annexin V-FITC/propidium iodide staining-based flow cytometry (reference value: 3.61%); type: functional
AGS [34] = experiment: Induction of apoptosis in human AGS cells assessed as reduction of caspase3 activation at 100 uM after 24 hrs by Western blotting analysis in presence of bafilomycin A1; type: functional, cell-based
HCT-116 [35] = experiment: Induction of apoptosis in human HCT116 cells assessed as membrane blebbing at >100 uM after 24 hrs by acridine orange staining-based microscopy; type: functional, cell-based
HCT-116 [36] = experiment: Induction of apoptosis in human HCT116 cells assessed as necrotic cells at 25 uM after 24 hrs by annexin V-FITC/propidium iodide staining-based flow cytometry (reference value: 0.68%); type: functional
[37] = Cytotoxicity against human Chang cells after 24 hrs by MTT assay; type: cell-based
AGS [38] = experiment: Induction of apoptosis in human AGS cells assessed as reduction of caspase3 activation at 100 uM after 24 hrs by Western blotting analysis in presence of SB202190; type: functional, cell-based

For `CC(C)=C[C@H]1C[C@](C)(O)[C@@H]2[C@H]3CC[C@@H]4[C@@]5(C)CC[C@H](O[C@@H]6OC[C@H](O)[C@H](O[C@@H]7O[C@H](CO)[C@@H](O)[C@H](O)[C@H]7O[C@@H]7OC[C@@H](O)[C@H](O)[C@H]7O)[C@H]6O[C@@H]6O[C@@H](C)[C@H](O)[C@@H](O)[C@H]6O)C(C)(C)[C@@H]5CC[C@@]4(C)[C@@]34CO[C@@]2(C4)O1`, the Activity (AGS [1]) was “Active”, the Activity (AGS [2]) was “Active” and the Activity (AGS [3]) was 8.29%. The Activity (AGS [4]) was “Active”, the Activity (HCT-116 [5]) was “Dose-dependent effect” and the IC50 (HCT-116 [5]; HCT-116, 24 h) was 114 µM. It also gave an Activity (AGS [6]) of 27.43%, an Activity (AGS [7]) of 12.44% and an Activity (HCT-116 [8]) of 37.59%. The Activity (AGS [9]) was “inactive”, the Activity (AGS [10]) was 0.55% and the Activity (AGS [11]) was 39.55%. For the same molecule, the Activity (AGS [12]) was 1.06%, the Activity (HCT-116 [13]) was “Active” and the Activity (AGS [14]) was “Active”. For the same molecule, the Activity (AGS [15]) was “Dose-dependent effect”, the IC50 (AGS [15]) was 107 µM and the Activity (HCT-116 [16]) was “Dose-dependent effect”. The Activity (AGS [17]) was “Active”, the Activity (AGS [18]) was “Active” and the Activity (AGS [19]) was “Active”. For the same molecule, the Activity (HCT-116 [20]) was “Dose-dependent effect”, the Activity (AGS [21]) was “inactive” and the Activity (HCT-116 [22]) was 5.1%. For the same molecule, the Activity (HCT-116 [23]) was 1.67%, the Activity (AGS [24]) was 28.85% and the Activity (AGS [25]) was “Active”. For the same molecule, the Activity (AGS [26]) was 21.73%, the Activity (HCT-116 [27]) was 60% and the Activity (AGS [28]) was “inactive”. The Activity (AGS [29]) was 15.78%, the Activity (AGS [30]) was “Active” and the Activity (AGS [31]) was “Dose-dependent effect”. The Activity (AGS [32]) was 12.12%, the Activity (Mus musculus) was “Non-toxic” and the Activity (HCT-116 [33]) was 2.64%. The Activity (AGS [34]) was “Active”, the Activity (HCT-116 [35]) was “Active” and the Activity (HCT-116 [36]) was 0.67%. For the same molecule, the IC50 [37] was 182 µM and the Activity (AGS [38]) was “inactive”.
